Results on ten compounds are retold here after the NIST ThermoML archive (doi:10.1016/j.jct.2015.08.033).

The nature of series [1]: mn = molality of the nth substance listed, in mol/kg. The note with it: 100 kPa, Liquid, m2 = 0; for speed of sound: Frequency=3 MHz, Sing-around technique in a fixed-path interferometer; for mass density: Vibrating tube method.
For series [2] the following is noted: 100 kPa, Liquid; for speed of sound: Frequency=3 MHz, Sing-around technique in a fixed-path interferometer; for mass density: Vibrating tube method.

Structures are written as SMILES. Numbers after ± are expanded uncertainties.

As usually defined, the speed of sound is how fast a sound wave travels through the sample. In general, mass density refers to the mass of a sample divided by its volume. In the case of `CN(C)C=O` [dimethylformamide] + O=S(=O)([O-])C(F)(F)F.O=S(=O)([O-])C(F)(F)F.[Ca+2], the speed of sound in series [1] (298.15 K) turned out to be 1457.2 ± 1.3 m/s; in series [1] (303.15 K), 1437.9 ± 1.3 m/s; in series [1] (308.15 K) it was 1418.5 ± 1.3 m/s; in series [1] (313.15 K), 1399.2 ± 1.3 m/s; in series [1] (318.15 K) it was 1380 ± 1.3 m/s. The mass density in series [1] (298.15 K) is listed as 943.915 ± 0.44 kg/m3; in series [1] (303.15 K), 939.142 ± 0.44 kg/m3; in series [1] (308.15 K), 934.356 ± 0.45 kg/m3; in series [1] (313.15 K), 929.553 ± 0.45 kg/m3; in series [1] (318.15 K), 924.746 ± 0.45 kg/m3.
For `CN(C)C=O` [dimethylformamide] + O=S(=O)([O-])C(F)(F)F.O=S(=O)([O-])C(F)(F)F.[Sr+2], the speed of sound in series [1] (298.15 K) is reported as 1457.2 ± 1.3 m/s; in series [1] (303.15 K) it was 1438 ± 1.3 m/s; in series [1] (308.15 K) it was 1418.6 ± 1.3 m/s; in series [1] (313.15 K), 1399.3 ± 1.3 m/s; in series [1] (318.15 K), 1380.1 ± 1.3 m/s. The mass density was 943.913 ± 0.51 kg/m3 in series [1] (298.15 K); 939.144 ± 0.51 kg/m3 in series [1] (303.15 K); 934.36 ± 0.51 kg/m3 in series [1] (308.15 K); 929.56 ± 0.51 kg/m3 in series [1] (313.15 K); 924.748 ± 0.51 kg/m3 in series [1] (318.15 K).
Take `CC(=O)N(C)C` [N,N-dimethylethanamide]: the speed of sound was 1455.8 ± 1.3 m/s in series [2] (298.15 K); 1436 ± 1.3 m/s in series [2] (303.15 K); 1416.1 ± 1.3 m/s in series [2] (308.15 K); 1396.5 ± 1.3 m/s in series [2] (313.15 K); 1376.9 ± 1.3 m/s in series [2] (318.15 K). In addition, the mass density in series [2] (298.15 K) worked out at 936.281 ± 0.14 kg/m3; in series [2] (303.15 K) it was 931.672 ± 0.14 kg/m3; in series [2] (308.15 K), 927.055 ± 0.14 kg/m3; in series [2] (313.15 K), 922.422 ± 0.14 kg/m3; in series [2] (318.15 K) it was 917.788 ± 0.14 kg/m3.
Turning to `CC(=O)N(C)C` [N,N-dimethylethanamide] + O=S(=O)([O-])C(F)(F)F.O=S(=O)([O-])C(F)(F)F.[Mg+2], the speed of sound in series [1] (298.15 K) was 1455.9 ± 1.3 m/s; in series [1] (303.15 K) it was 1436 ± 1.3 m/s; in series [1] (308.15 K) it was 1416.2 ± 1.3 m/s; in series [1] (313.15 K), 1396.5 ± 1.3 m/s; in series [1] (318.15 K) it was 1376.9 ± 1.3 m/s. Further, the mass density stood at 936.279 ± 0.46 kg/m3 in series [1] (298.15 K); 931.67 ± 0.46 kg/m3 in series [1] (303.15 K); 927.047 ± 0.46 kg/m3 in series [1] (308.15 K); 922.416 ± 0.46 kg/m3 in series [1] (313.15 K); 917.78 ± 0.46 kg/m3 in series [1] (318.15 K).
For the compound `CC(=O)N(C)C` [N,N-dimethylethanamide] + O=S(=O)([O-])C(F)(F)F.O=S(=O)([O-])C(F)(F)F.[Ca+2], the speed of sound in series [1] (298.15 K) stood at 1455.7 ± 1.3 m/s; in series [1] (303.15 K), 1435.9 ± 1.3 m/s; in series [1] (308.15 K) it was 1416.1 ± 1.3 m/s; in series [1] (313.15 K), 1396.5 ± 1.3 m/s; in series [1] (318.15 K) it was 1376.9 ± 1.3 m/s. The mass density in series [1] (298.15 K) worked out at 936.279 ± 0.45 kg/m3; in series [1] (303.15 K), 931.67 ± 0.45 kg/m3; in series [1] (308.15 K), 927.058 ± 0.45 kg/m3; in series [1] (313.15 K) it was 922.429 ± 0.45 kg/m3; in series [1] (318.15 K), 917.793 ± 0.45 kg/m3.
For the compound `CN(C)C=O` [dimethylformamide], the speed of sound is recorded as 1457.2 ± 1.3 m/s in series [2] (298.15 K); 1437.9 ± 1.3 m/s in series [2] (303.15 K); 1418.5 ± 1.3 m/s in series [2] (308.15 K); 1399.3 ± 1.3 m/s in series [2] (313.15 K); 1380 ± 1.3 m/s in series [2] (318.15 K). Also, the mass density was determined as 943.913 ± 0.14 kg/m3 in series [2] (298.15 K); 939.139 ± 0.14 kg/m3 in series [2] (303.15 K); 934.354 ± 0.14 kg/m3 in series [2] (308.15 K); 929.554 ± 0.14 kg/m3 in series [2] (313.15 K); 924.744 ± 0.14 kg/m3 in series [2] (318.15 K).
For the compound `CC(=O)N(C)C` [N,N-dimethylethanamide] + O=S(=O)([O-])C(F)(F)F.O=S(=O)([O-])C(F)(F)F.[Sr+2], the speed of sound in series [1] (298.15 K) turned out to be 1455.9 ± 1.3 m/s; in series [1] (303.15 K), 1435.9 ± 1.3 m/s; in series [1] (308.15 K), 1416.1 ± 1.3 m/s; in series [1] (313.15 K), 1396.5 ± 1.3 m/s; in series [1] (318.15 K) it was 1376.9 ± 1.3 m/s. Moreover, the mass density in series [1] (298.15 K) is 936.29 ± 0.52 kg/m3; in series [1] (303.15 K), 931.679 ± 0.52 kg/m3; in series [1] (308.15 K), 927.058 ± 0.52 kg/m3; in series [1] (313.15 K), 922.423 ± 0.52 kg/m3; in series [1] (318.15 K), 917.79 ± 0.52 kg/m3.
For `CC(=O)N(C)C` [N,N-dimethylethanamide] + [Ba+2].[O-][Cl+3]([O-])([O-])[O-].[O-][Cl+3]([O-])([O-])[O-], the speed of sound was 1455.9 ± 1.3 m/s in series [1] (298.15 K); 1436 ± 1.3 m/s in series [1] (303.15 K); 1416.2 ± 1.3 m/s in series [1] (308.15 K); 1396.5 ± 1.3 m/s in series [1] (313.15 K); 1376.9 ± 1.3 m/s in series [1] (318.15 K). The mass density in series [1] (298.15 K) stood at 936.277 ± 0.54 kg/m3; in series [1] (303.15 K), 931.67 ± 0.54 kg/m3; in series [1] (308.15 K), 927.058 ± 0.54 kg/m3; in series [1] (313.15 K) it was 922.423 ± 0.54 kg/m3; in series [1] (318.15 K), 917.79 ± 0.55 kg/m3.
With `CN(C)C=O` [dimethylformamide] + O=S(=O)([O-])C(F)(F)F.O=S(=O)([O-])C(F)(F)F.[Mg+2], the speed of sound amounted to 1457.1 ± 1.3 m/s in series [1] (298.15 K); 1437.9 ± 1.3 m/s in series [1] (303.15 K); 1418.5 ± 1.3 m/s in series [1] (308.15 K); 1399.2 ± 1.3 m/s in series [1] (313.15 K); 1380 ± 1.3 m/s in series [1] (318.15 K). Further, the mass density stood at 943.905 ± 0.43 kg/m3 in series [1] (298.15 K); 939.125 ± 0.43 kg/m3 in series [1] (303.15 K); 934.34 ± 0.43 kg/m3 in series [1] (308.15 K); 929.543 ± 0.43 kg/m3 in series [1] (313.15 K); 924.732 ± 0.43 kg/m3 in series [1] (318.15 K).
On to `CN(C)C=O` [dimethylformamide] + [Ba+2].[O-][Cl+3]([O-])([O-])[O-].[O-][Cl+3]([O-])([O-])[O-], for which the speed of sound in series [1] (298.15 K) is reported as 1457.2 ± 1.3 m/s; in series [1] (303.15 K), 1437.8 ± 1.3 m/s; in series [1] (308.15 K) it was 1418.5 ± 1.3 m/s; in series [1] (313.15 K) it was 1399.2 ± 1.3 m/s; in series [1] (318.15 K), 1380 ± 1.3 m/s. In addition, the mass density in series [1] (298.15 K) is recorded as 943.919 ± 0.54 kg/m3; in series [1] (303.15 K), 939.144 ± 0.54 kg/m3; in series [1] (308.15 K), 934.36 ± 0.55 kg/m3; in series [1] (313.15 K) it was 929.56 ± 0.55 kg/m3; in series [1] (318.15 K), 924.748 ± 0.55 kg/m3.
